# Test results reported in US8053439B2, “Benzophenone derivatives useful for inhibiting formation of microtubule” (Chong Kun Dang Pharmaceutical Corp., priority 2006, dated 2011).
# Tested on: HL60 cells
# Assay: Inhibition effect of HL60 cell line growth (MTT, 3 days)
# Format: cell-based
# Details: Homo sapiens, HL-60, 72 h, read-out: HL60 Growth Inhibition
# Procedure: 1. Inhibition Effect of HL60 Cell Line Growth
# A 10% FBS-contained RPMI1640 badge was used for culturing HL60 cells. The test substance was prepared by dissolving in DMSO to a concentration of 10 mg/ml, and continuously diluting with PBS to a final concentration of 100 μg/ml to 0.03 μg/ml. In a 96-well microplate, 180 μl of the badge containing 6.0×10^4 cells/ml of cells and 20 μl of continuously diluted test substance were added. The mixture was cultured at 37° C. with 5% CO2 atmosphere for 3 days. After completion of the cultivation, 50 μl of a solution of 1.25 mg/ml MTT (3-(4,5-dimethylthiazol-2-yl)-2,5-diphenyltetrazolium bromide) dissolved in PBS was added to all wells, and the resulting mixture was reacted at 37° C. for 3 hours. Thus formed formazan crystals were dissolved in 150 μl of DMSO, and an absorbance was measured at 570 nm.
row,Compound,IC50 [nM]
1,"COc1cc(C(=O)c2ccc(-c3cccnc3)cc2-n2cncn2)cc(OC)c1OC [Compound 511, (4-pyridin-3-yl-2-[1,2,4]thiazol-1-yl-phenyl)(3,4,5-trimethoxyphenyl)methanone]",100
2,"COc1cc(C(=O)c2ccc(-c3cscn3)cc2-n2cncn2)cc(OC)c1OC [Compound 562, (4-(thiazol-4-yl)-2-(1H-1,2,4-triazol-1-yl)phenyl)(3,4,5-trimethoxyphenyl)methanone]",80
3,"COc1ccc(-c2nccs2)cc1C(=O)c1cc(OC)c(OC)c(OC)c1 [Compound 583, (2-methoxy-5-(thiazol-2-yl)phenyl)(3,4,5-trimethoxyphenyl)methanone]",10
4,"COc1ccc(-c2ncco2)cc1C(=O)c1cc(OC)c(OC)c(OC)c1 [Compound 590, (2-methoxy-5-(oxazol-2-yl)phenyl)(3,4,5-trimethoxyphenyl)methanone]",10

# Same assay, conditions: Homo sapiens, HL-60, 72 h; HL60 cells, 3 days culture, MTT, absorbance 570 nm; read-out: HL60 Growth Inhibition
row,IC50 [nM],Compound
1,25,"CCS(=O)(=O)c1cccc(-c2ccc(C(=O)c3cc(OC)c(OC)c(OC)c3)c(-n3cncn3)c2)c1 [Compound 479, (3′-ethanesulfonyl-3-[1,2,4]triazol-1-yl-biphenyl-4-yl)(3,4,5-trimethoxyphenyl)methanone]"
2,4240,"COc1cc(C(=O)c2ccc(-c3nccs3)cc2OS(C)(=O)=O)cc(OC)c1OC [Compound 484, methanesulfonic acid 5-(thiazol-2-yl)-2-(3,4,5-trimethoxybenzoyl)phenyl ester]"
3,160,"COc1cc(C(=O)c2cc(-c3cccc(NS(C)(=O)=O)c3)ccc2F)cc(OC)c1OC [Compound 486, N-[4′-fluoro-3′-(3,4,5-trimethoxybenzoyl)-biphenyl-3-yl]-methanesulfonamide]"
4,120,"COc1cc(C(=O)c2ccc(-c3cccc(NS(C)(=O)=O)c3)cc2N)cc(OC)c1OC [Compound 494, N-(3′-amino-4′-(3,4,5-trimethoxybenzoyl)-biphenyl-3-yl)methanesulfonamide]"
5,160,"COc1cc(C(=O)c2ccc(-c3cccc(C#N)c3)cc2-n2cncn2)cc(OC)c1OC [Compound 506, 3′-[1,2,4]triazol-1-yl-4′-(3,4,5-trimethoxybenzoyl)-biphenyl-3-carbonitrile]"
6,25000,"Nc1nc(-c2ccc(C(=O)c3ccccc3)c(-n3cncn3)c2)cs1 [Compound 519, (4-(2-aminothiazol-4-yl)-2-(1H-1,24-triazol-1-yl)phenyl)(phenyl)methanone]"
7,90,"COc1cc(C(=O)c2ccc(-c3cccc(N)c3)cc2-n2cncn2)cc(OC)c1OC [Compound 525, (3′-amino-3-(1H-1,2,4-triazol-1-yl)biphenyl-4-yl)(3,4,5-trimethoxyphenyl)methanone]"
8,330,"COc1cc(C(=O)c2ccc(-c3c[nH]c(NC(C)=O)n3)cc2-n2cncn2)cc(OC)c1OC [Compound 531, N-(4-(3-(1H-1,2,4-triazol-1-yl)-4-(3,4,5-trimethoxybenzoyl)phenyl)-1H-imidazol-2-yl)acetamide]"
9,60,"COc1cc(C(=O)c2ccc(-c3cncs3)cc2-n2cncn2)cc(OC)c1OC [Compound 534, (4-(thiazol-5-yl)-2-(1H-1,2,4-triazol-1-yl)phenyl)(3,4,5-trimethoxyphenyl)methanone]"
10,280,"COc1cc(C(=O)c2ccc(-c3nccs3)cc2-n2cncn2)cc(OC)c1OC(F)F [Compound 538, (4-(difluoromethoxy)-3,5-dimethoxyphenyl)(4-(thiazol-2-yl)-2-(1H-1,2,4-triazol-1-yl)phenyl)methanone]"
11,30,"COc1cc(C(=O)c2ccc(-c3csc(N)n3)cc2-n2cncn2)cc(OC)c1OC(F)F [Compound 547, (4-(2-aminothiazol-4-yl)-2-(1H-1,2,4-triazol-1-yl)phenyl)(4-(difluoromethoxy)-3,5-dimethoxyphenyl)methanone]"
12,20,COc1cc(C(=O)c2ccc(-c3cccc(S(N)(=O)=O)c3)cc2-n2cncn2)cc(OC)c1OC [Compound 550]
13,90,"COc1cc(C(=O)c2ccc(-c3nc(CO)cs3)cc2-n2cncn2)cc(OC)c1OC [Compound 554, ((4-(4-hydroxymethyl)thiazol-2-yl)-2-(1H-1,2,4-triazol-1-yl)phenyl)(3,4,5-trimethoxyphenyl)methanone]"
14,90,"COc1cc(C(=O)c2ccc(-c3csc(NC(C)=O)n3)cc2-n2cncn2)cc(OC)c1OC [Compound 560, N-(4-(3-(1H-1,2,4-triazol-1-yl)-4-(3,4,5-trimethoxybenzoyl)phenyl)thiazol-2-yl)acetamide]"
15,320,"COC(=O)Nc1nc(-c2ccc(C(=O)c3cc(OC)c(OC)c(OC)c3)c(-n3cncn3)c2)cs1 [Compound 561, methyl 4-(3-(1H-1,2,4-triazol-1-yl)-4-(3,4,5-trimethoxybenzoyl)phenyl)thiazol-2-yl carbamate]"
16,250,"COc1cc(C(=O)c2ccc(-c3csc(C(C)(C)O)n3)cc2-n2cncn2)cc(OC)c1OC [Compound 563, (4-(2-(2-hydroxypropan-2-yl)thiazol-4-yl)-2-(1H-1,2,4-triazol-1-yl)phenyl)(3,4,5-trimethoxyphenyl)methanone]"

row,IC50 [nM],Compound
1,90,"COc1cc(C(=O)c2ccc(-c3csc(CO)n3)cc2-n2cncn2)cc(OC)c1OC [Compound 564, (4-(2-(hydroxymethyl)thiazol-4-yl)-2-(1H-1,2,4-triazol-1-yl)phenyl)(3,4,5-trimethoxyphenyl)methanone]"
2,360,"COc1cc(C(=O)c2cccc(-c3ccsc3)c2)cc(OC)c1OC [Compound 568, (3-(thiophen-3-yl)phenyl)(3,4,5-trimethoxyphenyl)methanone]"
3,120,"COc1cc(C(=O)c2cccc(-c3csc(N)n3)c2)cc(OC)c1OC [Compound 570, (3-(2-aminothiazol-4-yl)phenyl)(3,4,5-trimethoxyphenyl)methanone]"
4,110,"COc1cc(C(=O)c2ccc(-c3csc(N)n3)cc2)cc(OC)c1OC [Compound 571, (4-(2-aminothiazol-4-yl)phenyl)(3,4,5-trimethoxyphenyl)methanone]"
5,40,COc1cc(C(=O)c2cccc(-c3nccs3)c2)cc(OC)c1OC [Compound 581]
6,40,"COc1cc(C(=O)c2cccc(-c3ncco3)c2)cc(OC)c1OC [Compound 587, (3-(oxazol-2-yl)phenyl)(3,4,5-trimethoxyphenyl)methanone]"
7,120,"COc1ccc(-c2ccsc2)cc1C(=O)c1cc(OC)c(OC)c(OC)c1 [Compound 588, (2-methoxy-5-(thiophen-3-yl)phenyl)(3,4,5-trimethoxyphenyl)methanone]"
8,200,"COc1cc(C(=O)c2cccc(-c3ccc[nH]3)c2)cc(OC)c1OC [Compound 591, (3-(1H-pyrrol-2-yl)phenyl)(3,4,5-trimethoxyphenyl)methanone]"
9,120,"COc1ccc(-c2cccs2)cc1C(=O)c1cc(OC)c(OC)c(OC)c1 [Compound 594, (2-methoxy-5-(thiophen-2-yl)phenyl)(3,4,5-trimethoxyphenyl)methanone]"
10,120,"COc1ccc(-c2csc(C)n2)cc1C(=O)c1cc(OC)c(OC)c(OC)c1 [Compound 595, (2-methoxy-5-(methylthiazol-4-yl)phenyl)(3,4,5-trimethoxyphenyl)methanone]"
11,230,"COc1cc(C(=O)c2cc(-c3csc(C)n3)ccc2-n2cncn2)cc(OC)c1OC [Compound 596, (5-(2-methylthiazol-4-yl)-2-(1H-1,2,4-triazol-1-yl)phenyl)(3,4,5-trimethoxyphenyl)methanone]"
12,220,"COc1cc(C(=O)c2cc(-c3ccc[nH]3)ccc2N)cc(OC)c1OC [Compound 597, (2-amino-5-(1H-pyrrol-2-yl)phenyl)(3,4,5-trimethoxyphenyl)methanone]"
13,390,"COc1ccc(-c2ccn[nH]2)cc1C(=O)c1cc(OC)c(OC)c(OC)c1 [Compound 598, (2-methoxy-5-(1H-pyrazol-5-yl)phenyl)(3,4,5-trimethoxyphenyl)methanone]"
14,140,"COc1cc(C(=O)c2ccc(-c3ccc[nH]3)cc2-n2cncn2)cc(OC)c1OC [Compound 599, (4-(1H-pyrrol-2-yl)-2-(1H-1,2,4-triazol-1-yl)phenyl)(3,4,5-trimethoxyphenyl)methanone]"
15,90,"COc1cc(C(=O)c2cc(-c3nccs3)ccc2O)cc(OC)c1OC [Compound 601, (2-hydroxy-5-(thiazol-2-yl)phenyl)(3,4,5-trimethoxyphenyl)methanone]"
16,170,"COc1cc(C(=O)c2ccc(-c3ncco3)cc2-n2cncn2)cc(OC)c1OC [Compound 602, (4-(oxazol-2-yl)-2-(1H-1,2,4-triazol-1-yl)phenyl)(3,4,5-trimethoxyphenyl)methanone]"
